Results published in ChEMBL document CHEMBL3046469, “Fungicidal Activities of 2-(Substituted Phenoxymethyl)phenyl-2-methoxyiminoacaetamide Derivatives” (1998).

Columns and labels:
Assay type in all cases: functional
Pyricularia oryzae [1] = test: Fungicidal activity against Magnaporthe oryzae assessed as rice blast disease control at 125 ppm foliar application for 24 hr before inoculation at 27 +/- 2 degC measured after 5 days by preventive manner
Podosphaera fuliginea [2] = test: Fungicidal activity against Podosphaera fuliginea assessed as cucumber powdery mildew control at 125 ppm foliar application 24 hr before inoculation at 23 +/- 2 degC by preventive manner
[3] = system: Blumeria graminis f. sp. tritici; test: Fungicidal activity against Blumeria graminis f. sp. tritici assessed as wheat powdery mildew disease control at 125 ppm foliar application for 48 hr before inoculation by preventive manner
[4] = system: Pseudoperonospora cubensis; test: Fungicidal activity against Pseudoperonospora cubensis assessed as cucumber downy mildew disease control at 125 ppm foliar application 24 hr before inoculation onto the abaxial(untreated) surface of leaf by preventive manner
[5] = system: Pseudoperonospora cubensis; test: Fungicidal activity against Pseudoperonospora cubensis assessed as cucumber downy mildew disease control at 7.8 ppm foliar application 24 hr before inoculation onto the adaxial(treated) surface of leaf by preventive manner
Thanatephorus cucumeris [6] = test: Fungicidal activity against Thanatephorus cucumeris assessed as rice sheath blight disease control at 125 ppm foliar application for 24 hr before inoculation at 26 +/- 2 degC measured after 5 days by preventive manner
Podosphaera fuliginea [7] = test: Fungicidal activity against Podosphaera fuliginea assessed as cucumber powdery mildew control at 7.8 ppm foliar application 24 hr before inoculation at 23 +/- 2 degC by preventive manner
[8] = system: Pseudoperonospora cubensis; test: Fungicidal activity against Pseudoperonospora cubensis assessed as cucumber downy mildew disease control at 2 ppm foliar application 24 hr before inoculation onto the adaxial(treated) surface of leaf by preventive manner
Botrytis cinerea [9] = test: Fungicidal activity against Botryotinia fuckeliana assessed as cucumber gray mold disease control at 7.8 ppm foliar application […] at 22 +/- 2 degC by preventive manner
[10] = system: Blumeria graminis f. sp. tritici; test: Fungicidal activity against Blumeria graminis f. sp. tritici assessed as wheat powdery mildew disease control at 7.8 ppm foliar application 48 24 hr before inoculation by preventive manner
[11] = system: Pseudoperonospora cubensis; test: Fungicidal activity against Pseudoperonospora cubensis assessed as cucumber downy mildew disease control at 31.3 ppm foliar application 24 hr before inoculation onto the abaxial(untreated) surface of leaf by preventive manner
[12] = system: Blumeria graminis f. sp. tritici; test: Fungicidal activity against Blumeria graminis f. sp. tritici assessed as wheat powdery mildew disease control at 2 ppm foliar application for 48 hr before inoculation by preventive manner
[13] = system: Pseudoperonospora cubensis; test: Fungicidal activity against Pseudoperonospora cubensis assessed as cucumber downy mildew disease control at 7.8 ppm foliar application 24 hr before inoculation onto the abaxial(untreated) surface of leaf by preventive manner
Thanatephorus cucumeris [14] = test: Fungicidal activity against Thanatephorus cucumeris assessed as rice sheath blight disease control at 31.3 ppm foliar application for 24 hr before inoculation at 26 +/- 2 degC measured after 5 days by preventive manner
Pyricularia oryzae [15] = test: Fungicidal activity against Magnaporthe oryzae assessed as rice blast disease control at 31.3 ppm foliar application for 24 hr before inoculation at 27 +/- 2 degC measured after 5 days by preventive manner
Botrytis cinerea [16] = test: Fungicidal activity against Botryotinia fuckeliana assessed as cucumber gray mold disease control at 125 ppm foliar application […] at 22 +/- 2 degC by preventive manner
[17] = system: Pseudoperonospora cubensis; test: Fungicidal activity against Pseudoperonospora cubensis assessed as cucumber downy mildew disease control at 125 ppm foliar application 24 hr before inoculation onto the adaxial(treated) surface of leaf by preventive manner
Botrytis cinerea [18] = test: Fungicidal activity against Botryotinia fuckeliana assessed as cucumber gray mold disease control at 31.3 ppm foliar application […] at 22 +/- 2 degC by preventive manner
[19] = system: Blumeria graminis f. sp. tritici; test: Fungicidal activity against Blumeria graminis f. sp. tritici assessed as wheat powdery mildew disease control at 31.3 ppm foliar application for 48 hr before inoculation by preventive manner
Podosphaera fuliginea [20] = test: Fungicidal activity against Podosphaera fuliginea assessed as cucumber powdery mildew control at 2 ppm foliar application 24 hr before inoculation at 23 +/- 2 degC by preventive manner

## CNC(=O)/C(=N/OC)c1ccccc1COc1cccc([N+](=O)[O-])c1
Pyricularia oryzae [1]
  Activity: 90%
Podosphaera fuliginea [2]
  Activity: <90%
[3]
  Activity: 90%
[4]
  Activity: <90%
[5]
  Activity: 90%
Thanatephorus cucumeris [6]
  Activity: <90%

## CNC(=O)/C(=N/OC)c1ccccc1COc1cc(Cl)cc(Cl)c1
Podosphaera fuliginea [7]
  Activity: 90%
[8]
  Activity: 90%
Botrytis cinerea [9]
  Activity: 90%
Pyricularia oryzae [1]
  Activity: 90%
[10]
  Activity: 90%
Thanatephorus cucumeris [6]
  Activity: <90%
[11]
  Activity: 90%

## CNC(=O)/C(=N/OC)c1ccccc1COc1cc(F)ccc1F
[12]
  Activity: 90%
Podosphaera fuliginea [7]
  Activity: 90%
[8]
  Activity: 90%
[13]
  Activity: 90%
Thanatephorus cucumeris [14]
  Activity: 90%
Botrytis cinerea [9]
  Activity: 90%
Pyricularia oryzae [15]
  Activity: 90%

## CNC(=O)/C(=N/OC)c1ccccc1COc1ccccc1F
Podosphaera fuliginea [7]
  Activity: 90%
[13]
  Activity: 90%
Botrytis cinerea [9]
  Activity: 90%
[5]
  Activity: 90%
Pyricularia oryzae [15]
  Activity: 90%
Thanatephorus cucumeris [6]
  Activity: 90%

## CNC(=O)/C(=N/OC)c1ccccc1COc1ccc(/C=C\c2ccccc2)cc1
Botrytis cinerea [16]
  Activity: <90%
Pyricularia oryzae [1]
  Activity: <90%
Podosphaera fuliginea [2]
  Activity: <90%
[3]
  Activity: 90%
[4]
  Activity: <90%
Thanatephorus cucumeris [6]
  Activity: <90%

## CNC(=O)/C(=N/OC)c1ccccc1COc1ccc(Br)cc1
[12]
  Activity: 90%
Podosphaera fuliginea [7]
  Activity: 90%
Botrytis cinerea [9]
  Activity: 90%
[5]
  Activity: 90%
Pyricularia oryzae [15]
  Activity: 90%
Thanatephorus cucumeris [6]
  Activity: <90%
[11]
  Activity: 90%

## C#CCOc1ccccc1OCc1ccccc1/C(=N\OC)C(=O)NC
Botrytis cinerea [16]
  Activity: <90%
Pyricularia oryzae [1]
  Activity: 90%
[17]
  Activity: 90%
Podosphaera fuliginea [2]
  Activity: 90%
[3]
  Activity: <90%
[4]
  Activity: <90%
Thanatephorus cucumeris [6]
  Activity: <90%

## CNC(=O)/C(=N/OC)c1ccccc1COc1c(F)cccc1F
Podosphaera fuliginea [7]
  Activity: 90%
[10]
  Activity: 90%
Botrytis cinerea [18]
  Activity: 90%
[5]
  Activity: 90%
Pyricularia oryzae [15]
  Activity: 90%
Thanatephorus cucumeris [6]
  Activity: 90%
[11]
  Activity: 90%

## CNC(=O)/C(=N/OC)c1ccccc1COc1cccc(Cl)c1Cl
[8]
  Activity: 90%
[19]
  Activity: 90%
Botrytis cinerea [18]
  Activity: 90%
[4]
  Activity: <90%
Pyricularia oryzae [15]
  Activity: 90%
Thanatephorus cucumeris [6]
  Activity: <90%
Podosphaera fuliginea [20]
  Activity: 90%

## CNC(=O)/C(=N/OC)c1ccccc1COc1cccc(Cl)c1
Podosphaera fuliginea [7]
  Activity: 90%
[8]
  Activity: 90%
[13]
  Activity: 90%
Thanatephorus cucumeris [14]
  Activity: 90%
Botrytis cinerea [9]
  Activity: 90%
[10]
  Activity: 90%
Pyricularia oryzae [15]
  Activity: 90%

## CNC(=O)/C(=N/OC)c1ccccc1COc1cc(C)c(C)cc1Cl
Podosphaera fuliginea [7]
  Activity: 90%
[8]
  Activity: 90%
Botrytis cinerea [9]
  Activity: 90%
Pyricularia oryzae [1]
  Activity: 90%
[3]
  Activity: 90%
[4]
  Activity: <90%
Thanatephorus cucumeris [6]
  Activity: <90%

## CNC(=O)/C(=N/OC)c1ccccc1COc1ccccc1-c1ccccc1
Botrytis cinerea [16]
  Activity: <90%
Pyricularia oryzae [1]
  Activity: 90%
[17]
  Activity: 90%
Podosphaera fuliginea [2]
  Activity: 90%
[3]
  Activity: <90%
[4]
  Activity: <90%
Thanatephorus cucumeris [6]
  Activity: <90%

## CNC(=O)/C(=N/OC)c1ccccc1COc1cccc(Br)c1
Podosphaera fuliginea [7]
  Activity: 90%
[8]
  Activity: 90%
[13]
  Activity: 90%
Botrytis cinerea [9]
  Activity: 90%
Pyricularia oryzae [1]
  Activity: 90%
Thanatephorus cucumeris [6]
  Activity: <90%

## CNC(=O)/C(=N/OC)c1ccccc1COc1ccc(F)cc1
[12]
  Activity: 90%
Podosphaera fuliginea [7]
  Activity: 90%
Botrytis cinerea [9]
  Activity: 90%
Pyricularia oryzae [1]
  Activity: 90%
[5]
  Activity: 90%
Thanatephorus cucumeris [6]
  Activity: 90%
[11]
  Activity: 90%

## CNC(=O)/C(=N/OC)c1ccccc1COc1cccc(F)c1F
[12]
  Activity: 90%
Podosphaera fuliginea [7]
  Activity: 90%
Botrytis cinerea [9]
  Activity: 90%
Pyricularia oryzae [1]
  Activity: <90%
[4]
  Activity: <90%
[5]
  Activity: 90%
Thanatephorus cucumeris [6]
  Activity: <90%

## CNC(=O)/C(=N/OC)c1ccccc1COc1cc(C)cc(C)c1
[12]
  Activity: 90%
Podosphaera fuliginea [7]
  Activity: 90%
[8]
  Activity: 90%
Thanatephorus cucumeris [14]
  Activity: 90%
Botrytis cinerea [9]
  Activity: 90%
[4]
  Activity: <90%
Pyricularia oryzae [15]
  Activity: 90%
